Laboratory results: article PMC10657444, “Design and evaluation of tadpole-like conformational antimicrobial peptides” (Communications Biology, 2023)
Values joined by “and” are separate entries in the source; they are usually repeats but may differ in a detail not shown here. Equal values may be shown once. Residues, ends and D or L forms follow the SMILES beside them.

Tests used:
[1] = test system: K. pneumoniae ATCC 700603; assay: microbe, parasite or virus in culture; type: cell-based, Klebsiella pneumoniae
Procedure: (§1) MRSA USA 300 and K. pneumoniae ATCC 700603 were employed to assess the development of resistance. From inoculated microtiter panels, an aliquot of the well with the highest concentration permitting growth was taken and back diluted in fresh media to a turbidity of a 0.5 McFarland standard. This suspension was then further diluted and used to inoculate a fresh MIC panel resulting in a final concentration of 5 × 10^6 CFU/mL. Panels were incubated according to CLSI guidelines (M07, 11th edition, 2018), MICs were recorded and the next inoculum was prepared from the well containing the highest concentration of drug that allowed growth in identical fashion as described above.

MRSA USA 300 [2] = assay: microbe, parasite or virus in culture; type: cell-based, Staphylococcus aureus
Procedure: as §1

MRSA USA 300 [3] = assay: Time-kill assay; type: cell-based, Staphylococcus aureus
Procedure: Time-kill assays were done in tubes (in 1.5 mL of LB) and antibiotics at the 1 ×, 2 ×, 4 × and 8 × MIC. Tubes were inoculated (5 × 10^6 CFU/mL) with MRSA USA 300 and K. pneumoniae ATCC 700603 and incubated at 37 °C under shaking. Serial dilutions of the cultures were plated at each desired time point (0, 1, 3, 6, and 24 h), using a multichannel pipette as follows: in line 1 of a 96-well plate, 100 µL of bacterial suspension was added, while 90 µL of 0.9% sterile saline per well was added to the other lines. At selected time points, 100 µL of bacterial suspension was transferred from the time-kill assay plate to the first line. The wells were further diluted 1 in 10 (0.9% saline) for the appropriate number of dilutions and 10 μL of each dilution was spotted in duplicate onto MH agar plates, then incubated overnight at 37°C. The colonies in each spot were counted and used to calculate the number of viable CFU/mL remaining in the original culture by considering the dilution factors.

SMILES: CC[C@H](C)[C@H](NC(=O)[C@H](CCCNC(=N)N)NC(=O)[C@H](CCCNC(=N)N)NC(=O)[C@H](CC(C)C)NC(=O)[C@H](Cc1ccccc1)NC(=O)[C@@H](N)CCCNC(=N)N)C(=O)N[C@@H](Cc1ccccc1)C(=O)N[C@@H](Cc1ccccc1)C(=O)N[C@@H](Cc1ccccc1)C(=O)N[C@@H](Cc1ccccc1)C(N)=O [HT2] (H-RFLRRIFFFF-NH2)
- Concentration (MIC in drug resistance assay) ([1]; K. pneumoniae ATCC 700603, day 0): 6.25 µg/mL
- Concentration (MIC in drug resistance assay) ([1]; K. pneumoniae ATCC 700603, day 1): 6.25 µg/mL
- Concentration (MIC in drug resistance assay) ([1]; K. pneumoniae ATCC 700603, day 2): 6.25 µg/mL
- Concentration (MIC in drug resistance assay) ([1]; K. pneumoniae ATCC 700603, day 3): 12.5 µg/mL
- Concentration (MIC in drug resistance assay) ([1]; K. pneumoniae ATCC 700603, day 4): 12.5 µg/mL
- Concentration (MIC in drug resistance assay) ([1]; K. pneumoniae ATCC 700603, day 5): 6.25 µg/mL
- Concentration (MIC in drug resistance assay) ([1]; K. pneumoniae ATCC 700603, day 6): 6.25 µg/mL
- Concentration (MIC in drug resistance assay) ([1]; K. pneumoniae ATCC 700603, day 7): 6.25 µg/mL
- Concentration (MIC in drug resistance assay) ([1]; K. pneumoniae ATCC 700603, day 8): 6.25 µg/mL
- Concentration (MIC in drug resistance assay) ([1]; K. pneumoniae ATCC 700603, day 9): 6.25 µg/mL
- Concentration (MIC in drug resistance assay) ([1]; K. pneumoniae ATCC 700603, day 10): 12.5 µg/mL
- Concentration (MIC in drug resistance assay) ([1]; K. pneumoniae ATCC 700603, day 11): 12.5 µg/mL
- Concentration (MIC in drug resistance assay) ([1]; K. pneumoniae ATCC 700603, day 12): 12.5 µg/mL
- Concentration (MIC in drug resistance assay) ([1]; K. pneumoniae ATCC 700603, day 13): 12.5 µg/mL
- Concentration (MIC in drug resistance assay) ([1]; K. pneumoniae ATCC 700603, day 14): 25 µg/mL
- Concentration (MIC in drug resistance assay) ([1]; K. pneumoniae ATCC 700603, day 15): 25 µg/mL
- Concentration (MIC in drug resistance assay) ([1]; K. pneumoniae ATCC 700603, day 16): 25 µg/mL
- Concentration (MIC in drug resistance assay) ([1]; K. pneumoniae ATCC 700603, day 17): 25 µg/mL
- Concentration (MIC in drug resistance assay) ([1]; K. pneumoniae ATCC 700603, day 18): 12.5 µg/mL
- Concentration (MIC in drug resistance assay) ([1]; K. pneumoniae ATCC 700603, day 19): 25 µg/mL
- Concentration (MIC in drug resistance assay) ([1]; K. pneumoniae ATCC 700603, day 20): 25 µg/mL
- Concentration (MIC in drug resistance assay) ([1]; K. pneumoniae ATCC 700603, day 21): 25 µg/mL
- Concentration (MIC in drug resistance assay) ([1]; K. pneumoniae ATCC 700603, day 22): 12.5 µg/mL
- Concentration (MIC in drug resistance assay) ([1]; K. pneumoniae ATCC 700603, day 23): 25 µg/mL
- Concentration (MIC in drug resistance assay) ([1]; K. pneumoniae ATCC 700603, day 24): 50 µg/mL
- Concentration (MIC in drug resistance assay) ([1]; K. pneumoniae ATCC 700603, day 25): 25 µg/mL
- Concentration (MIC in drug resistance assay) ([1]; K. pneumoniae ATCC 700603, day 26): 25 µg/mL
- Concentration (MIC in drug resistance assay) ([1]; K. pneumoniae ATCC 700603, day 27): 25 µg/mL
- Concentration (MIC in drug resistance assay) ([1]; K. pneumoniae ATCC 700603, day 28): 25 µg/mL
- Concentration (MIC in drug resistance assay) ([1]; K. pneumoniae ATCC 700603, day 29): 25 µg/mL
- Concentration (MIC in drug resistance assay) ([1]; K. pneumoniae ATCC 700603, day 30): 50 µg/mL
- Concentration (MIC in drug resistance assay) ([1]; K. pneumoniae ATCC 700603, day 31): 25 µg/mL
- Concentration (MIC in drug resistance assay) ([1]; K. pneumoniae ATCC 700603, day 32): 25 µg/mL
- Concentration (MIC in drug resistance assay) ([1]; K. pneumoniae ATCC 700603, day 33): 25 µg/mL
- Concentration (MIC in drug resistance assay) ([1]; K. pneumoniae ATCC 700603, day 34): 12.5 µg/mL
- Concentration (MIC in drug resistance assay) ([1]; K. pneumoniae ATCC 700603, day 35): 25 µg/mL
- Concentration (MIC in drug resistance assay) ([1]; K. pneumoniae ATCC 700603, day 36): 25 µg/mL
- Concentration (MIC in drug resistance assay) ([1]; K. pneumoniae ATCC 700603, day 37): 50 µg/mL
- Concentration (MIC in drug resistance assay) ([1]; K. pneumoniae ATCC 700603, day 38): 25 µg/mL
- Concentration (MIC in drug resistance assay) ([1]; K. pneumoniae ATCC 700603, day 39): 25 µg/mL
- Concentration (MIC in drug resistance assay) ([1]; K. pneumoniae ATCC 700603, day 40): 25 µg/mL
- increase in MIC after 40 passages ([1]; serial passage at sub-MIC): four-fold
- Concentration (MIC in drug resistance assay) (MRSA USA 300 [2]; MRSA USA 300, day 0): 3.125 µg/mL
- Concentration (MIC in drug resistance assay) (MRSA USA 300 [2]; MRSA USA 300, day 1): 3.125 µg/mL
- Concentration (MIC in drug resistance assay) (MRSA USA 300 [2]; MRSA USA 300, day 2): 3.125 µg/mL
- Concentration (MIC in drug resistance assay) (MRSA USA 300 [2]; MRSA USA 300, day 3): 3.125 µg/mL
- Concentration (MIC in drug resistance assay) (MRSA USA 300 [2]; MRSA USA 300, day 11): 3.125 µg/mL
- Concentration (MIC in drug resistance assay) (MRSA USA 300 [2]; MRSA USA 300, day 13): 3.125 µg/mL
- Concentration (MIC in drug resistance assay) (MRSA USA 300 [2]; MRSA USA 300, day 22): 12.5 µg/mL
- Concentration (MIC in drug resistance assay) (MRSA USA 300 [2]; MRSA USA 300, day 26): 12.5 µg/mL
- Concentration (MIC in drug resistance assay) (MRSA USA 300 [2]; MRSA USA 300, day 27): 12.5 µg/mL
- Concentration (MIC in drug resistance assay) (MRSA USA 300 [2]; MRSA USA 300, day 28): 12.5 µg/mL
- Concentration (MIC in drug resistance assay) (MRSA USA 300 [2]; MRSA USA 300, day 29): 12.5 µg/mL
- Concentration (MIC in drug resistance assay) (MRSA USA 300 [2]; MRSA USA 300, day 32): 12.5 µg/mL
- Concentration (MIC in drug resistance assay) (MRSA USA 300 [2]; MRSA USA 300, day 33): 12.5 µg/mL
- Concentration (MIC in drug resistance assay) (MRSA USA 300 [2]; MRSA USA 300, day 34): 12.5 µg/mL
- Concentration (MIC in drug resistance assay) (MRSA USA 300 [2]; MRSA USA 300, day 35): 12.5 µg/mL
- Concentration (MIC in drug resistance assay) (MRSA USA 300 [2]; MRSA USA 300, day 37): 12.5 µg/mL
- Concentration (MIC in drug resistance assay) (MRSA USA 300 [2]; MRSA USA 300, day 38): 12.5 µg/mL
- Concentration (MIC in drug resistance assay) (MRSA USA 300 [2]; MRSA USA 300, day 39): 12.5 µg/mL
- Concentration (MIC in drug resistance assay) (MRSA USA 300 [2]; MRSA USA 300, day 40): 12.5 µg/mL
- increase in MIC after 40 passages (MRSA USA 300 [2]; serial passage at sub-MIC): four-fold
- viable count, time-kill (MRSA USA 300 [3]; 2 × MIC, 0 h): 3600000 CFU/mL and 3500000 CFU/mL and 3200000 CFU/mL
- viable count, time-kill (MRSA USA 300 [3]; 2 × MIC, 3 h): 3900000 CFU/mL and 3800000 CFU/mL
- viable count, time-kill (MRSA USA 300 [3]; 2 × MIC, 6 h): 1700000 CFU/mL and 1900000 CFU/mL
- viable count, time-kill (MRSA USA 300 [3]; 2 × MIC, 24 h): 910000 CFU/mL and 920000 CFU/mL and 890000 CFU/mL
- viable count, time-kill (MRSA USA 300 [3]; 4 × MIC, 0 h): 3600000 CFU/mL and 3500000 CFU/mL and 3200000 CFU/mL
- viable count, time-kill (MRSA USA 300 [3]; 4 × MIC, 1 h): 970000 CFU/mL and 1040000 CFU/mL and 1090000 CFU/mL
- viable count, time-kill (MRSA USA 300 [3]; 4 × MIC, 3 h): 840000 CFU/mL and 870000 CFU/mL and 910000 CFU/mL
- viable count, time-kill (MRSA USA 300 [3]; 4 × MIC, 6 h): 150000 CFU/mL and 160000 CFU/mL and 180000 CFU/mL
- viable count, time-kill (MRSA USA 300 [3]; 4 × MIC, 24 h): 68000 CFU/mL and 71000 CFU/mL and 72000 CFU/mL
- viable count, time-kill (MRSA USA 300 [3]; 8 × MIC, 0 h): 3600000 CFU/mL and 3500000 CFU/mL and 3200000 CFU/mL
- viable count, time-kill (MRSA USA 300 [3]; 8 × MIC, 1 h): 990000 CFU/mL and 950000 CFU/mL and 910000 CFU/mL
- viable count, time-kill (MRSA USA 300 [3]; 8 × MIC, 3 h): 580000 CFU/mL and 590000 CFU/mL
- viable count, time-kill (MRSA USA 300 [3]; 8 × MIC, 6 h): 68000 CFU/mL and 70000 CFU/mL and 77000 CFU/mL
- viable count, time-kill (MRSA USA 300 [3]; 8 × MIC, 24 h): 1000 CFU/mL and 1100 CFU/mL and 1400 CFU/mL
- killing outcome (in words) (MRSA USA 300 [3]; 8 × MIC, after 24 h): cannot completely be killed
- viable count, time-kill (MRSA USA 300 [3]; MIC, 0 h): 3600000 CFU/mL and 3500000 CFU/mL and 3200000 CFU/mL
- viable count, time-kill (MRSA USA 300 [3]; MIC, 1 h): 4600000 CFU/mL and 4900000 CFU/mL
- viable count, time-kill (MRSA USA 300 [3]; MIC, 3 h): 2100000 CFU/mL and 2000000 CFU/mL and 2300000 CFU/mL
- viable count, time-kill (MRSA USA 300 [3]; MIC, 6 h): 2800000 CFU/mL and 2500000 CFU/mL and 1700000 CFU/mL
- viable count, time-kill (MRSA USA 300 [3]; MIC, 24 h): 4100000000 CFU/mL and 4400000000 CFU/mL and 4900000000 CFU/mL
